Consider 18 compounds from publication PMC12621043, “Un-LOK-ing a New Approach for Conformational Selective Targeting of STK10 (LOK)” (ACS Medicinal Chemistry Letters, 2025).

In one experiment the target is T1, FGFR3A (Homo sapiens, UniProt P22607).
T1 construct: purchased in-house DSF kinase panel (SGC-style construct names; the trailing letter is the construct ID)
Nature of the experiment: DSF Tm panel. In kind it is binding. The settings on record: 10 μM compound.

For a further experiment, the target named is T2, TOPKA (Homo sapiens, UniProt Q96KB5).
T2 construct: purchased in-house DSF kinase panel (SGC-style construct names; the trailing letter is the construct ID)
T2 sequence (Q96KB5 1-322): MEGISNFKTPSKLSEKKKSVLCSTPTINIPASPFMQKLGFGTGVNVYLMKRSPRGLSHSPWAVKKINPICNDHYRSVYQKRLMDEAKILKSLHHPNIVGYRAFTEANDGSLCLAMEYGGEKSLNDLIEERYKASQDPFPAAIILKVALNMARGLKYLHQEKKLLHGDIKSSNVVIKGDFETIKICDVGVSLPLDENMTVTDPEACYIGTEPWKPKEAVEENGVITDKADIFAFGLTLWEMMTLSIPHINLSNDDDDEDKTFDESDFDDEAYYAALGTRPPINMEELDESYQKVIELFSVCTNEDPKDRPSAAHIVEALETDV
Kind of experiment: DSF Tm panel. The format is binding. As to conditions: 10 μM compound.

Another experiment deals with T3, WNK1A (Homo sapiens, UniProt Q9H4A3).
T3 construct: purchased in-house DSF kinase panel (SGC-style construct names; the trailing letter is the construct ID)
Nature of the experiment: DSF Tm panel. In kind it is binding. As to conditions: 10 μM compound.

The target in another experiment is T4, CAMK1GA (Homo sapiens, UniProt Q96NX5).
T4 construct: purchased in-house DSF kinase panel (SGC-style construct names; the trailing letter is the construct ID)
Nature of the experiment: DSF Tm panel. In kind it is binding. The settings on record: 10 μM compound.

The target of the next experiment is SLK (Homo sapiens, UniProt Q9H2G2). Nature of the experiment: Surface plasmon resonance (SPR). In kind it is binding. The settings on record: kinetic fit, Figure S3. A general note: Surface plasmon resonance follows binding to a sensor surface in real time, without labels.
For another experiment, the target named is T5, AURKBA (Homo sapiens, UniProt Q96GD4).
T5 construct: purchased in-house DSF kinase panel (SGC-style construct names; the trailing letter is the construct ID)
Nature of the experiment: DSF Tm panel. In kind it is binding. The settings on record: 10 μM compound.

The target in the next experiment is T6, NEK7A (Homo sapiens, UniProt Q8TDX7).
T6 construct: purchased in-house DSF kinase panel (SGC-style construct names; the trailing letter is the construct ID)
Nature of the experiment: DSF Tm panel. As to conditions: 10 μM compound. In kind it is binding.

The subject of the next experiment is RPS6KA5A. Nature of the experiment: DSF Tm panel. In kind it is binding. As to conditions: 10 μM compound. The protocol:
The synthesized urea-based derivatives were evaluated in a panel of kinases by differential scanning fluorescence (DSF) to investigate their selectivity profile. A positive ΔT m in the DSF assay indicates stabilization of the protein upon ligand binding in comparison to its apo state, with higher thermal shifts generally correlating with stronger binding. For this purpose, we used our internal kinase selectivity panel (∼90 kinases) along with staurosporine as a positive control. […]
was performed as previously described.[1,2] Briefly, recombinant protein kinase domains at a concentration of 2 μM were mixed with 10 μM compound in a buffer containing 20 mM HEPES, […]
probe (1 µl per mL). Subsequently, temperature-dependent protein unfolding profiles were […]
The temperature was raised with a step rate of 3 °C per minute. […]
inflection point of the transition curve. […]
previously.[3] In brief, STK10, STK3, STK4 and SLK were obtained as plasmids cloned in […]
Plasmids were transfected into
KD concentration taken from TracerDB (tracerdb.org)[4] were pipetted into white 384-well

In a further experiment the target is T7, EPHA4A (Homo sapiens, UniProt P54764).
T7 construct: purchased in-house DSF kinase panel (SGC-style construct names; the trailing letter is the construct ID)
T7 sequence (P54764 621-882): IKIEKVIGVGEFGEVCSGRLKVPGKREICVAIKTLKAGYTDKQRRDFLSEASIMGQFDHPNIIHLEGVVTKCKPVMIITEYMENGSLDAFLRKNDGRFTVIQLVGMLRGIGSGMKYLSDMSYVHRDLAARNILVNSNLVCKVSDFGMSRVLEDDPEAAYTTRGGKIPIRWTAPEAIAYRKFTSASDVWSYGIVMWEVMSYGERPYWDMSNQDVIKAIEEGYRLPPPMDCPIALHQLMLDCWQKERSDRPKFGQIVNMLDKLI
Nature of the experiment: DSF Tm panel. In kind it is binding. As to conditions: 10 μM compound.

In a further experiment the target is T8, MSSK1A (Homo sapiens, UniProt Q9UPE1).
T8 construct: purchased in-house DSF kinase panel (SGC-style construct names; the trailing letter is the construct ID)
Nature of the experiment: DSF Tm panel. The format is binding. As to conditions: 10 μM compound.

The target in the next experiment is T9, FECHHSB (Homo sapiens, UniProt P22830).
T9 construct: purchased in-house DSF kinase panel (SGC-style construct names; the trailing letter is the construct ID)
Nature of the experiment: DSF Tm panel. In kind it is binding. As to conditions: 10 μM compound.

Experiment [1] concerns the target T10, STK10 (Homo sapiens, UniProt O94804).
T10 construct: purchased in-house DSF kinase panel (SGC-style construct names; the trailing letter is the construct ID)
As to conditions: Figure 1, previous published dual STK10/SLK inhibitors, ref Serafim et al.; read-out: STK10 cellular IC50; cited from earlier work.

Experiment [2] addresses T10, STK10. As to conditions: Figure 1, previous published dual STK10/SLK inhibitors, ref Serafim et al.; read-out: STK10 in vitro IC50; cited from earlier work.

Molecules are shown by their SMILES. Several values for one entry are separate records, joined by “and”; a condition that tells them apart may be missing. Identical values can stand only once. Like-named read-outs stand apart in the source and are kept apart here.

One may read the ΔTm as the shift of the melting midpoint relative to a reference. Broadly, the Kd is the free concentration of one partner at which half of the binding sites on the other are occupied at equilibrium, for simple one-to-one binding. Read a low Kd as a tighter complex. The IC50 is the concentration that gives 50% inhibition.

T5 sequence (Q96GD4 whole entry): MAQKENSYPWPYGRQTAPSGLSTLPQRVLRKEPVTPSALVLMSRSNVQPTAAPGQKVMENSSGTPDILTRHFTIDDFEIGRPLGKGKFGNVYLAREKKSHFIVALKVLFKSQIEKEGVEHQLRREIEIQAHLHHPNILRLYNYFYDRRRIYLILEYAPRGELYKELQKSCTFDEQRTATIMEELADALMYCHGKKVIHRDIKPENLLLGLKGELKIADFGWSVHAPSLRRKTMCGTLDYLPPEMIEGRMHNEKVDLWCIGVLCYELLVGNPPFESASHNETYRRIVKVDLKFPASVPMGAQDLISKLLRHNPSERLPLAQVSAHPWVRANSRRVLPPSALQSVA
T1 sequence (P22607 472-761): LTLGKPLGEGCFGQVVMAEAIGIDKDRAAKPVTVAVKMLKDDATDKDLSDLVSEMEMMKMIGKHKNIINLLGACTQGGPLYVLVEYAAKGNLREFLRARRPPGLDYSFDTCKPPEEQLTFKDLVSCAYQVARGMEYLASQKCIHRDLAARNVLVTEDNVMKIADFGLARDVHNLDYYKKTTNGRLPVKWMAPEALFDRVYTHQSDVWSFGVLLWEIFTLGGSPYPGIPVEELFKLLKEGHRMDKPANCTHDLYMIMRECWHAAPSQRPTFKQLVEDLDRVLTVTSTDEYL
T6 sequence (Q8TDX7 whole entry): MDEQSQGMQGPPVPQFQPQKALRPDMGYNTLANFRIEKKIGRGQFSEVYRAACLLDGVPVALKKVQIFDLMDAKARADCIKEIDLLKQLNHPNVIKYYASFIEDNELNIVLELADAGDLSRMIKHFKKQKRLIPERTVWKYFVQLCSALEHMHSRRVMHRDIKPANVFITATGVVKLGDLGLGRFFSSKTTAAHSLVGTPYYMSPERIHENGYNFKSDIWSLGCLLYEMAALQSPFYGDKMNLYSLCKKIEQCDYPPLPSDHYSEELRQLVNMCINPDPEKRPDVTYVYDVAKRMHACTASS
T3 sequence (Q9H4A3 206-483): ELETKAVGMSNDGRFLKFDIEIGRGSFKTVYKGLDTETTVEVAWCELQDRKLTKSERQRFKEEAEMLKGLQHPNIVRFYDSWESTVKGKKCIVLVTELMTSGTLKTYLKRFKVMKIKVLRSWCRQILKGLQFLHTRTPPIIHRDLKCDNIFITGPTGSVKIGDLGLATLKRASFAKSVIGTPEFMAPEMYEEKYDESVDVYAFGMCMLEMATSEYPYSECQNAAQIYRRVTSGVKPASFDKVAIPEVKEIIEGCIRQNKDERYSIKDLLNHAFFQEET
T8 sequence (Q9UPE1 79-565): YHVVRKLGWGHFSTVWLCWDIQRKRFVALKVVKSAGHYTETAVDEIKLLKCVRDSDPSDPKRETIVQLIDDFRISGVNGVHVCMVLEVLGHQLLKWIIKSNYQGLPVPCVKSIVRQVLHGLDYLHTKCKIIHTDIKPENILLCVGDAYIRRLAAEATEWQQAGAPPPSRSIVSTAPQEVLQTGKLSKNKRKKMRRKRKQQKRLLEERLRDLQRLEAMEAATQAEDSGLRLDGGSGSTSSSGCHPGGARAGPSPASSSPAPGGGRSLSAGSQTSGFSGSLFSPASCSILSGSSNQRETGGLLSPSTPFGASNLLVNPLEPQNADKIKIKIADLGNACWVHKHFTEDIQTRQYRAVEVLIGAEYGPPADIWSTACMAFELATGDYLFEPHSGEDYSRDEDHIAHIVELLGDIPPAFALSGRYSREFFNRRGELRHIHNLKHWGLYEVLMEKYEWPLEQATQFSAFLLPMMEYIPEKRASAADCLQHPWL
T10 sequence (O94804 18-317 limits assumed): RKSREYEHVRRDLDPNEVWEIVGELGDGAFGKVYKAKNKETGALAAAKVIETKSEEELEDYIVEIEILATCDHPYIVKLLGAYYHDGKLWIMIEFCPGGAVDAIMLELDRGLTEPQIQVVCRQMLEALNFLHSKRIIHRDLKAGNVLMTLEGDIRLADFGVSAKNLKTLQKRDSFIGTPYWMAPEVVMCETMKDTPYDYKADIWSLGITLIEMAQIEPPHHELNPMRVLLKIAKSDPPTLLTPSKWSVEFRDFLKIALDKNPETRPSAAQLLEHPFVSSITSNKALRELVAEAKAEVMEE
T4 sequence (Q96NX5 18-316): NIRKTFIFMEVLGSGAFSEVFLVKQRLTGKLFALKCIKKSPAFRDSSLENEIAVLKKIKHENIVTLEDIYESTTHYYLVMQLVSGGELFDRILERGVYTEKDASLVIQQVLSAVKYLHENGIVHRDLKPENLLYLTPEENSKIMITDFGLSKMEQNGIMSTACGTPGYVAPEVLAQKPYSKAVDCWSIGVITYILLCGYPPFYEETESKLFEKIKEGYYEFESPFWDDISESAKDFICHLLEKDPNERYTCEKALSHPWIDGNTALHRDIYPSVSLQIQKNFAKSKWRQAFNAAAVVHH
T9 sequence (P22830 55-423): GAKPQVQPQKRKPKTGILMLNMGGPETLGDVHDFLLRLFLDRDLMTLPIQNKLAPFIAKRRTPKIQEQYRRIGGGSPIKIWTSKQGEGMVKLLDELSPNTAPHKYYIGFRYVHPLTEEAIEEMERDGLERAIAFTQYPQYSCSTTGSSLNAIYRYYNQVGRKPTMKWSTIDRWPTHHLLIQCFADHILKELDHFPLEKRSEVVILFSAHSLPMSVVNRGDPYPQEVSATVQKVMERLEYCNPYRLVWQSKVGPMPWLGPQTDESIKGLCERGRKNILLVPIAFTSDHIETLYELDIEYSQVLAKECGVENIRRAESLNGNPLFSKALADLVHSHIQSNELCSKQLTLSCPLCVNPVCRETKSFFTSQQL

In the case of `O=C(NCc1ccccc1)Nc1ccc2cc1OCCOCCNc1ccn3ncc-2c3n1` [compound 16], the ΔTm at 10 µM on FGFR3A is 5 °C; at TOPKA, 0.4 °C; at WNK1A, 0 °C; at CAMK1GA, -0.3 °C.
As to `O=C(NCc1ccccc1Cl)Nc1ccc2cc1OCCOCCNc1ccn3ncc-2c3n1` [compound 17], the ΔTm at 10 µM worked out at 2.1 °C at FGFR3A, 0.4 °C on TOPKA, 0.5 °C on WNK1A and 0.9 °C on CAMK1GA.
For `O=C(NCc1cccc(Cl)c1)Nc1ccc2cc1OCCOCCNc1ccn3ncc-2c3n1` [compound 18], the ΔTm at 10 µM on FGFR3A was determined as 3.6 °C; at TOPKA, 0.5 °C; at WNK1A, 0.09 °C; at CAMK1GA, 0.8 °C.
In the same order, the values of `O=C(NCc1ccc(Cl)cc1)Nc1ccc2cc1OCCOCCNc1ccn3ncc-2c3n1` [compound 19] are 1.7 °C, 0.2 °C, -0.2 °C and 0.9 °C.
For `O=C(NCc1ccc(Cl)cc1Cl)Nc1ccc2cc1OCCOCCNc1ccn3ncc-2c3n1` [compound 20], the ΔTm at 10 µM was 1.4 °C at FGFR3A, 1.2 °C on TOPKA, 0.4 °C at WNK1A and 2.7 °C on CAMK1GA.
In the same order, the values of `O=C(NCc1ccc(Cl)cc1F)Nc1ccc2cc1OCCOCCNc1ccn3ncc-2c3n1` [compound 21] are 1.6 °C, 0.6 °C, -0.2 °C and 2 °C.
Consider `Cc1cc(Cl)ccc1CNC(=O)Nc1ccc2cc1OCCOCCNc1ccn3ncc-2c3n1` [compound 23], for which the ΔTm at 10 µM at FGFR3A stood at 2.5 °C; on TOPKA, 1.5 °C; on WNK1A, 1.6 °C; on CAMK1GA, 2 °C. On SLK, the Kd is 0.985 ± 0.855 µM. In addition, the “Kd SLK (SPR)” value on SLK was “mainly nonspecific binding”.
As for `Cc1cc(Br)ccc1CNC(=O)Nc1ccc2cc1OCCOCCNc1ccn3ncc-2c3n1` [compound 24], the ΔTm at 10 µM on AURKBA was determined as 7.7 °C; at NEK7A, 1.6 °C; at EPHA4A, 0.2 °C; at MSSK1A, 0.2 °C. In addition, the “ΔTm RPS6KA5A” value in the experiment with RPS6KA5A is 1,0 °C.
For the compound `Cc1ccc(F)cc1CNC(=O)Nc1ccc2cc1OCCOCCNc1ccn3ncc-2c3n1` [compound 26], the ΔTm at 10 µM on AURKBA was 7.8 °C; on NEK7A, 0.9 °C; on EPHA4A, 0.3 °C; at MSSK1A, 0.4 °C. Besides, the “ΔTm RPS6KA5A” value in the experiment with RPS6KA5A was 0,7 °C.
In the same order, the values of `O=C(NCc1ccccc1C(F)(F)F)Nc1ccc2cc1OCCOCCNc1ccn3ncc-2c3n1` [compound 27] are 8.6 °C, 2 °C, 0.3 °C, 0.5 °C and 1,3 °C.
In the same order, the values of `O=C(NCc1ccc(C(F)(F)F)cc1)Nc1ccc2cc1OCCOCCNc1ccn3ncc-2c3n1` [compound 28] are 9 °C, 2.3 °C, 0.5 °C, 0.3 °C and 1,5 °C.
Turning to `COc1ccccc1CNC(=O)Nc1ccc2cc1OCCOCCNc1ccn3ncc-2c3n1` [compound 29], the ΔTm at 10 µM on FECHHSB was -3.1 °C; on AURKBA, 6.6 °C; on NEK7A, 1.7 °C; on EPHA4A, 0.3 °C; on MSSK1A it was 0.5 °C. Further, the “ΔTm RPS6KA5A” value with RPS6KA5A was 0,2 °C.
For `COc1cccc(CNC(=O)Nc2ccc3cc2OCCOCCNc2ccn4ncc-3c4n2)c1` [compound 30], the ΔTm at 10 µM on FECHHSB was -3.8 °C; on AURKBA it was 7.3 °C; on NEK7A, 1 °C; on EPHA4A, 0.3 °C; on MSSK1A, 0.4 °C. In the experiment with RPS6KA5A, the “ΔTm RPS6KA5A” value was 0,3 °C.
Turning to `COc1ccc(CNC(=O)Nc2ccc3cc2OCCOCCNc2ccn4ncc-3c4n2)cc1` [compound 31], the ΔTm at 10 µM was 7.6 °C on AURKBA, 0.6 °C at NEK7A, 0.4 °C on EPHA4A and 0.7 °C at MSSK1A. Moreover, the IC50 on STK10 [1] is > 1 µM and 1.4 µM; at STK10 [2], 0.012 µM.
As to `COc1ccc(CNC(=O)Nc2ccc3cc2OCCOCCNc2ccn4ncc-3c4n2)cc1F` [compound 32], the ΔTm at 10 µM on AURKBA came out at 7.9 °C; on NEK7A, 1.3 °C; at EPHA4A, 0.4 °C; at MSSK1A, 0.4 °C. In the experiment on RPS6KA5A, the “ΔTm RPS6KA5A” value is 1,1 °C.
For the compound `COc1cc(CNC(=O)Nc2ccc3cc2OCCOCCNc2ccn4ncc-3c4n2)ccc1F` [compound 33], the ΔTm at 10 µM on AURKBA came out at 9.1 °C; at NEK7A, 1.4 °C; on EPHA4A, 0.4 °C; on MSSK1A, 0.4 °C. In addition, the “ΔTm RPS6KA5A” value in the experiment with RPS6KA5A was 0,7 °C.
In the case of `C[C@H](NC(=O)Nc1ccc2cc1OCCOCCNc1ccn3ncc-2c3n1)c1ccccc1` [compound 34], the ΔTm at 10 µM stood at 7.1 °C on AURKBA, 0.9 °C on NEK7A, 0.3 °C at EPHA4A and 0.4 °C on MSSK1A. Further, in the experiment with RPS6KA5A, the “ΔTm RPS6KA5A” value is 0,6 °C.
As to `CN1CCN(C(=O)Nc2ccc3cc2OCCOCCNc2ccn4ncc-3c4n2)CC1` [compound 35], the ΔTm at 10 µM at FGFR3A was 3 °C; at TOPKA, -0.4 °C; on WNK1A it was 0.4 °C; on CAMK1GA, 0 °C.
